According to patent publication US20220264878A1, “HERBICIDAL COMPOSITION CONTAINING R-TYPE PYRIDYLOXY CARBOXYLIC ACID DERIVATIVE AND USE THEREOF” (Qingdao Kingagroot Chemical Compound Co., Ltd., priority 2019, published 2022):
Read-outs that look alike come from different tables or passages of the source.

Tests used:
Assay type in all cases: in vivo
[1] = test system: Capsella bursa-pastoris; assay: Post-emergence foliage spray, pot culture, fresh weight inhibition (Tables 1-48, 51-98, 101-148; 24 days)
Procedure, shortened: (§1)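 Greenhouse pot-grown weeds (15 per pot, 3 pots, 4 replicates) at the 5–6-leaf (grasses) or 6–7-leaf (broadleaf) stage were sprayed once on foliage at 450 kg/ha spray volume, 0.3 MPa. Acetone solutions were diluted in 0.1% Tween-80. Aboveground fresh weight versus blank control was recorded after 24 days.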

[2] = test system: Ludwigia prostrate; assay: as above
Procedure, shortened: as §1

[3] = test system: Alopecurus japonicus; assay: Post-emergence foliage spray, pot culture, fresh weight inhibition (Tables 151-206; 20 days)
Procedure, shortened: (§2)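 Field-collected weeds grown in pots in a greenhouse (20-30° C., natural light, 57-72% RH), 15 per pot, 3 pots × 4 replicates. Single foliar spray at 4-5 leaves (grasses) or 5-6 leaves (broadleaf) with acetone/0.1% Tween-80 dilutions at 450 kg/ha, 0.3 MPa. Above-ground fresh weight inhibition versus solvent blank at 20 days.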

[4] = test system: Digitaria sanguinalis; assay: as above; conditions: Digitaria sanguinalis, 480 h, read-out: Control effect (%) of A applied alone in corresponding dose
Procedure, shortened: as §2

[5] = test system: Eleusine indica; assay: as above
Procedure, shortened: as §2

[6] = test system: Sinapis arvensis; assay: as above
Procedure, shortened: as §2

[7] = test system: Amaranthus retroflexus; assay: as above
Procedure, shortened: (§3)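 Pre-germinated seeds (25° C soak 6 h, 28° C dark) grown in pots, thinned to 15 per pot; foliage-sprayed at 4~5-leaf (grasses) or 5~6-leaf (broadleaf) stage, 450 kg/ha spray volume, 0.3 MPa. Agents in acetone diluted with 0.1% Tween-80 water; solvent blank control. Above-ground fresh weight weighed, dead weeds scored zero.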

[8] = test system: Capsella bursa-pastoris; assay: as above; conditions: Capsella bursa-pastoris, 480 h, read-out: Control effect (%) of A applied alone in corresponding dose
Procedure, shortened: as §3

[9] = test system: Eclipta prostrate; assay: Post-emergence foliage spray, pot culture, fresh weight inhibition (Tables 1-48, 51-98, 101-148; 24 days); conditions: fresh weight inhibition after 24 days
Procedure, shortened: as §1

[10] = A alone 75 g a.i./ha, 20 days after treatment
[11] = A alone 150 g a.i./ha, 20 days after treatment

**Q.** For `C[C@@H](Oc1nc(F)c(Cl)c(N)c1Cl)C(=O)O` [Compound A1], which “Control effect (%) of A applied alone in corresponding dose” value (shortened to “Control effect (%) of A applied alone”) ([1]; A1 7.5 g a.i./ha) is on record?
**A.** 36.2%

**Q.** And the “Control effect (%) of A applied alone” value ([1]; A1 15 g a.i./ha)?
**A.** 75.9%

**Q.** And the “Control effect (%) of A applied alone” value ([2]; A1 75 g a.i./ha)?
**A.** 34.3%

**Q.** What about the “Control effect (%) of A applied alone” value ([2]; A1 150 g a.i./ha) of the same molecule?
**A.** 72.4%

**Q.** What about the “Control effect (%) of A applied alone” value ([3]; A 75 g a.i./ha, 20 days) of the same molecule?
**A.** 31.3%

**Q.** And the “Control effect (%) of A applied alone” value ([3]; A 150 g a.i./ha, 20 days)?
**A.** 57.6%

**Q.** What about the pest or weed control at 75 g/ha ([4]; A 75 g a.i./ha, 20 days) of the same molecule?
**A.** 25.9%

**Q.** And the pest or weed control at 150 g/ha ([4]; A 150 g a.i./ha, 20 days)?
**A.** 69.1%

**Q.** And the “Control effect (%) of A applied alone” value ([5]; A 75 g a.i./ha, 20 days)?
**A.** 46.9%

**Q.** And the “Control effect (%) of A applied alone” value ([5]; A 150 g a.i./ha, 20 days)?
**A.** 81.2%

**Q.** And the “Control effect (%) of A applied alone” value ([6]; A 75 g a.i./ha, 20 days)?
**A.** 50.4%

**Q.** What about the “Control effect (%) of A applied alone” value ([6]; A 150 g a.i./ha, 20 days) of the same molecule?
**A.** 79.9%

**Q.** And the “Control effect (%) of A applied alone” value ([7]; A 75 g a.i./ha, 20 days)?
**A.** 35.4%

**Q.** And the “Control effect (%) of A applied alone” value ([7]; A 150 g a.i./ha, 20 days)?
**A.** 71.7%

**Q.** And the pest or weed control at 75 g/ha ([8]; A 75 g a.i./ha, 20 days)?
**A.** 56.5%

**Q.** And the pest or weed control at 150 g/ha ([8]; A 150 g a.i./ha, 20 days)?
**A.** 82.4%

**Q.** Which results are given for `C[C@@H](Oc1nc(F)c(Cl)c(N)c1Cl)C(=O)OCC1CCCO1` (stereo partly drawn) [Compound A2]?
**A.** Control effect (%) of A applied alone in corresponding dose ([9]; A 75 g a.i/ha): 32.3%; Control effect (%) of A applied alone in corresponding dose ([9]; A 150 g a.i/ha): 68.4%; Control effect (%) of A applied alone in corresponding dose [3, 10]: 24.4%; Control effect (%) of A applied alone in corresponding dose [3, 11]: 44.5%; pest or weed control at 75 g/ha [4, 10]: 19.4%; pest or weed control at 150 g/ha [4, 11]: 51.6%; Control effect (%) of A applied alone in corresponding dose [5, 10]: 35.7%; Control effect (%) of A applied alone in corresponding dose [5, 11]: 63.3%; Control effect (%) of A applied alone in corresponding dose [6, 10]: 37.9%; Control effect (%) of A applied alone in corresponding dose [6, 11]: 60.4%; Control effect (%) of A applied alone in corresponding dose [7, 10]: 25.7%; Control effect (%) of A applied alone in corresponding dose [7, 11]: 51.8%; pest or weed control at 75 g/ha [8, 10]: 44.2%; pest or weed control at 150 g/ha [8, 11]: 65%
